In PubChem BioAssay (NCI):
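Test compounds were applied to cells in 96-well plates for 48 hours at 5 doses. Definition used: TGI = concentration required for complete inhibition of growth.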

Key:
Assay in all cases: inhibition of tumour cell growth, NCI panel, 48 h
[1] = tested on: CCRF-CEM leukemia
[2] = tested on: DLD-1 colon
[3] = tested on: HCC-2998 colon
[4] = tested on: HL-60(TB) leukemia
[5] = tested on: IGROV1 ovarian
[6] = tested on: MOLT-4 leukemia
[7] = tested on: NCI-H226 lung
[8] = tested on: NCI-H460 lung
[9] = tested on: RXF 393 renal
[10] = tested on: SF-539 CNS
[11] = tested on: SK-MEL-5 melanoma
[12] = tested on: SN12C renal
[13] = tested on: SNB-75 CNS
[14] = tested on: SR leukemia
[15] = tested on: U251 CNS
[16] = tested on: UACC-62 melanoma
[17] = tested on: UO-31 renal
[18] = tested on: DU-145 prostate
[19] = tested on: HS 578T breast
[20] = tested on: MDA-N

SMILES | TGI [1] [µM] | TGI [2] [µM] | TGI [3] [µM] | TGI [4] [µM] | TGI [5] [µM] | TGI [6] [µM] | TGI [7] [µM] | TGI [8] [µM] | TGI [9] [µM] | TGI [10] [µM] | TGI [11] [µM] | TGI [12] [µM] | TGI [13] [µM] | TGI [14] [µM] | TGI [15] [µM] | TGI [16] [µM] | TGI [17] [µM] | TGI [18] [µM] | TGI [19] [µM] | TGI [20] [µM]
CC(=O)OC1CC2C(C)(C)C(=O)C=C[C@]2(C)C2CCC3(C)C(c4ccoc4)[C@@H](O)[C@H]4O[C@]43[C@]12C (some centres not stated) | 54 | 41 | 29.6 | 46.7 | 46.2 | 88.8 | 33.5 | 36.5 | 35.5 | 34.2 | 34.2 | 34.1 | 57.3 | 41.4 | 27.8 | 32.5 | 31.8 |  |  | 
CCOC(=O)C(C(=O)OCC)=C1N[C@H](C(=O)OCC)CS1 | > 100 | > 100 | > 100 | > 100 | > 100 | > 100 | > 100 | > 100 | > 100 | > 100 | > 100 | > 100 |  | > 100 | > 100 | > 100 | > 100 |  |  | 
c1ccc(CN2CCCCC(Sc3ccccc3)CC2)cc1 (configuration not stated) | 43.8 | 41.7 | 29.8 | 46.3 | > 100 | 50.7 | 85.2 | 42.5 |  | 77.4 | 34.1 | 61.8 | > 100 | 37.7 | 31.7 | > 100 | 28.8 |  |  | 
NC(=O)NC1=NC(Cc2ccccc2)C(=O)N1Cc1ccccc1 (configuration not stated) | > 100 | > 100 | > 100 | > 100 | > 100 | > 100 | > 100 | > 100 | > 100 | > 100 | > 100 | > 100 | > 100 | > 100 | > 100 | > 100 | > 100 |  |  | 
CC1=CC(=O)c2c(C=O)c(O)c(O)c(C(C)C)c2C1=O | 60.1 | > 68.4 | > 94.5 | > 79.5 | 63.9 | 66.3 | 54.8 | > 74.1 | 20.8 | 58.4 | 65 | > 100 | > 100 | > 74.4 | 47.4 | 56.4 | > 56.8 |  |  | 
C=C(Br)C(C)(Br)CCC(Br)C(C)(C)Br (configuration not stated) | 63.5 | > 100 |  | 62.3 | 39 | 94.2 | > 100 | > 100 | > 100 | 38.8 | > 100 | 52.4 | 89.2 | 54.7 | 38.4 | 45.1 | > 100 |  |  | 
COc1cc(C2S/C(=C/c3ccccc3)C(=O)N2c2cc(Cl)c(Cl)cc2Cl)cc(OC)c1OC (configuration not stated) | > 88.9 |  | > 100 | > 77.2 | > 100 | > 72.4 | > 100 | > 100 | > 100 | > 100 | > 100 | > 100 | 19.1 | > 69.4 | > 100 | > 100 | > 100 | > 100 | > 57 | > 100
O=C1N=NC(=O)N1c1cc(C(F)(F)F)cc(C(F)(F)F)c1 | > 45 |  | 14.7 | > 100 | 14.8 | 40.3 | 12.4 | 13.4 | 12.4 | 20.7 | 7.62 | 13.8 | 11.7 | > 53.1 | 12.4 | 18.3 | 7.89 | > 40 | 20.8 | 20.4
CCOC(=O)N1CCN(c2nc(C)n(-c3ccccc3)c(=S)c2C#N)CC1 | > 62.6 |  | > 100 | > 66.7 | > 63.4 | > 100 | > 100 | > 100 | > 100 | > 100 | > 100 | > 100 | > 79.7 | > 100 | > 100 | > 100 | > 100 | > 100 | > 100 | > 72.2
CC(=O)c1ccc(NC(=O)C(=O)C(C(=O)c2ccc(Cl)c(Cl)c2)C2OC(=O)c3ccccc32)cc1 (configuration not stated) | > 100 | 55.8 | 26.9 | > 100 | 65.5 | > 100 | 24.6 | 33.5 | 17.4 |  |  | 59.9 |  | > 100 | 23 | 33.7 | > 100 |  |  | 
Cc1ccc2c(c1)C(C1Cc3cccc(C)c3C1=O)OC2=O (configuration not stated) | > 100 |  | > 100 | > 100 | > 100 | > 100 | > 100 | > 100 | > 100 | > 100 | > 100 | > 100 | > 100 | > 100 | > 100 | > 100 | > 100 | > 100 | > 100 | > 100
CCOC(=O)c1[nH]cc(C)c1-c1c[nH]c2ccccc12 | > 78.1 |  | > 100 | > 100 | > 100 | 27.9 | 67.6 | > 87.5 | > 80 | > 100 | 34.5 | > 100 | 90.7 | > 39.4 | > 100 | > 100 | 48.1 | > 100 | 61.7 | > 83.8
C=C(C)[C@@H]1CCC2=C[C@H](OC2=O)[C@@]2(C)C[C@@H]2C(=O)/C=C(/C)C(=O)[C@H]1OC(C)=O | > 25.2 |  | 43 | > 100 | > 69.3 | > 39.4 | 58.3 | > 82.3 | > 48 | > 33.7 | 29.7 | > 56.9 | > 83.5 | > 37.8 | > 68 | > 73 | > 100 | 21 | 88.6 | > 35.8
